# Data as given in US20230085307A1, “PYRIDAZINONE COMPOUND AND HERBICIDE” (NISSAN CHEMICAL CORPORATION, priority 2019, published 2023).
# Tests used:
# late watergrass = assay: Test Example 2: herbicidal activity, application during weed generation under submerged conditions (Table 17, symbol A); type: in vivo, late watergrass (Echinochloa oryzicola); conditions: AAH 320 g/ha; application during weed generation, submerged conditions
# How it was run: (§1)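 Effect on each weed is rated three weeks post-treatment, using the same scoring criteria as the preceding test. Plants grow from mixed-sown seed in flooded alluvial soil (4 cm water) at 25° C. to 30° C., and are treated at one to two leaves with diluted emulsion dropped onto the water.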
# blackgrass = assay: Test Example 4: herbicidal effect by soil treatment (Table 19, symbol J); type: in vivo, blackgrass (Alopecurus myosuroides); conditions: 320 g/ha
# How it was run: (§2)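 Soil-surface application: an emulsion agent diluted with water to the predetermined dose is sprayed uniformly over seeds lying under roughly 1.5 cm of sterilized diluvial soil. Boxes stay in a greenhouse at 25° C. to 30° C. Three weeks later, each species is graded on previously defined criteria.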
# redroot pigweed = assay: Test Example 4: herbicidal effect by soil treatment (Table 19, symbol N); type: in vivo, redroot pigweed (Amaranthus retroflexus); conditions: 320 g/ha
# How it was run: as §2
# wild oat [1] = assay: Test Example 4: herbicidal effect by soil treatment (Table 19, symbol I); type: in vivo, wild oat (Avena fatua); conditions: 320 g/ha
# How it was run: as §2
# oval-leafed pondweed [2] = assay: Test Example 1: herbicidal activity, application before weed generation under submerged conditions (Table 16, symbol C); type: in vivo, oval-leafed pondweed (Monochoria vaginalis); conditions: 320 g/ha applied herbicide
# How it was run: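 Submerged Wagner pots (alluvial soil, 4 cm water) sown with weed seeds and planted with 2.5-leaf rice seedlings; emulsifiable concentrate diluted in water applied to water surface on sowing day. Held in greenhouse at 25-30 °C; injury scored 0-5 by herbicidal rate after three weeks.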
# Italian ryegrass [3] = assay: Test Example 4: herbicidal effect by soil treatment (Table 19, symbol K); type: in vivo, Italian ryegrass (Lolium multiflorum); conditions: 320 g/ha
# How it was run: as §2
# persian speedwell = assay: Test Example 5: herbicidal effect by foliage application, plastic box (Table 20, symbol R); type: in vivo, Persian speedwell (Veronica persica); conditions: foliage application, 320 g/ha, evaluated three weeks after application
# How it was run: (§3)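 Sow seeds spot-wise in sterilized diluvial soil; cover with ~1.5 cm soil. Grow 14 days in greenhouse, 25° C. to 30° C. Spray foliage with emulsion diluted to predetermined amount. Rate effect after 3 weeks.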
# wild oat [4] = assay: Test Example 5: herbicidal effect by foliage application, plastic box (Table 20, symbol I); type: in vivo, wild oat (Avena fatua); conditions: foliage application, 320 g/ha, evaluated three weeks after application
# How it was run: as §3
# chickweed = assay: Test Example 4: herbicidal effect by soil treatment (Table 19, symbol P); type: in vivo, common chickweed (Stellaria media); conditions: 320 g/ha
# How it was run: as §2
# oval-leafed pondweed [5] = assay: Test Example 2: herbicidal activity, application during weed generation under submerged conditions (Table 17, symbol C); type: in vivo, oval-leafed pondweed (Monochoria vaginalis); conditions: AAH 320 g/ha; application during weed generation, submerged conditions
# How it was run: as §1
# southern crabgrass = assay: Test Example 5: herbicidal effect by foliage application, plastic box (Table 20, symbol F); type: in vivo, southern crabgrass (Digitaria ciliaris); conditions: foliage application, 320 g/ha, evaluated three weeks after application
# How it was run: as §3
# green foxtail [6] = assay: Test Example 4: herbicidal effect by soil treatment (Table 19, symbol G); type: in vivo, green foxtail (Setaria viridis); conditions: 320 g/ha
# How it was run: as §2
# rice flat sedge = assay: Test Example 3: herbicidal effect by foliage application, Wagner pot (Table 18, symbol E); type: in vivo, rice flat sedge (Cyperus iria); conditions: 320 g/ha
# How it was run: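 Plants were sown in alluvial soil held under 0.1–0.5 cm standing water and grown 14 days in a greenhouse at 25–30 °C. An emulsifiable formulation, water-diluted to the set dose, was then sprayed onto the foliage, and effects were scored three weeks later using previously defined criteria.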
# green foxtail [7] = assay: Test Example 5: herbicidal effect by foliage application, plastic box (Table 20, symbol G); type: in vivo, green foxtail (Setaria viridis); conditions: foliage application, 320 g/ha, evaluated three weeks after application
# How it was run: as §3
# Italian ryegrass [8] = assay: Test Example 5: herbicidal effect by foliage application, plastic box (Table 20, symbol K); type: in vivo, Italian ryegrass (Lolium multiflorum); conditions: foliage application, 320 g/ha, evaluated three weeks after application
# How it was run: as §3
# velvetleaf [9] = assay: Test Example 4: herbicidal effect by soil treatment (Table 19, symbol M); type: in vivo, velvetleaf (Abutilon theophrasti); conditions: 320 g/ha
# How it was run: as §2
# velvetleaf [10] = assay: Test Example 5: herbicidal effect by foliage application, plastic box (Table 20, symbol M); type: in vivo, velvetleaf (Abutilon theophrasti); conditions: foliage application, 320 g/ha, evaluated three weeks after application
# How it was run: as §3
smiles,measurement,setting,value
C=CCOc1ccc(-c2sc3ccc(F)cc3c2-c2c(O)c(C)nn(C)c2=O)cc1 [2-051],"herbicidal effect rating, A: late watergrass",late watergrass,0 (Herbicidal rate of 5% or less (almost no effect))
same,"herbicidal effect rating, J: blackgrass",blackgrass,0 (Herbicidal rate of 5% or less (almost no effect))
same,"herbicidal effect rating, N: redroot pigweed",redroot pigweed,5 (Herbicidal rate of 90% or more (almost completely withered))
same,"herbicidal effect rating, I: wild oat",wild oat [1],0 (Herbicidal rate of 5% or less (almost no effect))
same,Herbicidal effect on C: oval-leafed pondweed (grade 0-5),oval-leafed pondweed [2],4 (Herbicidal rate of 70% or more and less than 90%)
same,"herbicidal effect rating, K: Italian ryegrass",Italian ryegrass [3],0 (Herbicidal rate of 5% or less (almost no effect))
same,herbicidal effect on R: persian speedwell,persian speedwell,5 (Herbicidal rate of 90% or more (almost completely withered))
same,herbicidal effect on I: wild oat,wild oat [4],4 (Herbicidal rate of 70% or more and less than 90%)
same,"herbicidal effect rating, P: chickweed",chickweed,1 (Herbicidal rate of 5% or more and less than 20%)
same,"herbicidal effect rating, C: oval-leafed pondweed",oval-leafed pondweed [5],1 (Herbicidal rate of 5% or more and less than 20%)
same,herbicidal effect on F: southern crabgrass,southern crabgrass,5 (Herbicidal rate of 90% or more (almost completely withered))
same,"herbicidal effect rating, G: green foxtail",green foxtail [6],5 (Herbicidal rate of 90% or more (almost completely withered))
same,"herbicidal effect on E (rice flat sedge), rating 0-5",rice flat sedge,5 (Herbicidal rate of 90% or more (almost completely withered))
same,herbicidal effect on G: green foxtail,green foxtail [7],5 (Herbicidal rate of 90% or more (almost completely withered))
same,herbicidal effect on K: Italian ryegrass,Italian ryegrass [8],4 (Herbicidal rate of 70% or more and less than 90%)
same,"herbicidal effect rating, M: velvetleaf",velvetleaf [9],3 (Herbicidal rate of 40% or more and less than 70%)
same,herbicidal effect on M: velvetleaf,velvetleaf [10],4 (Herbicidal rate of 70% or more and less than 90%)
C#CCOc1ccc(-c2sc3ccc(F)cc3c2-c2c(O)c(C)nn(C)c2=O)cc1 [2-053],"herbicidal effect rating, A: late watergrass",late watergrass,0 (Herbicidal rate of 5% or less (almost no effect))
same,"herbicidal effect rating, J: blackgrass",blackgrass,0 (Herbicidal rate of 5% or less (almost no effect))
same,"herbicidal effect rating, N: redroot pigweed",redroot pigweed,0 (Herbicidal rate of 5% or less (almost no effect))
same,"herbicidal effect rating, I: wild oat",wild oat [1],0 (Herbicidal rate of 5% or less (almost no effect))
same,Herbicidal effect on C: oval-leafed pondweed (grade 0-5),oval-leafed pondweed [2],4 (Herbicidal rate of 70% or more and less than 90%)
same,"herbicidal effect rating, K: Italian ryegrass",Italian ryegrass [3],0 (Herbicidal rate of 5% or less (almost no effect))
same,herbicidal effect on R: persian speedwell,persian speedwell,5 (Herbicidal rate of 90% or more (almost completely withered))
same,herbicidal effect on I: wild oat,wild oat [4],2 (Herbicidal rate of 20% or more and less than 40%)
same,"herbicidal effect rating, P: chickweed",chickweed,1 (Herbicidal rate of 5% or more and less than 20%)
same,"herbicidal effect rating, C: oval-leafed pondweed",oval-leafed pondweed [5],3 (Herbicidal rate of 40% or more and less than 70%)
same,herbicidal effect on F: southern crabgrass,southern crabgrass,4 (Herbicidal rate of 70% or more and less than 90%)
same,"herbicidal effect rating, G: green foxtail",green foxtail [6],4 (Herbicidal rate of 70% or more and less than 90%)
same,"herbicidal effect on E (rice flat sedge), rating 0-5",rice flat sedge,4 (Herbicidal rate of 70% or more and less than 90%)
same,herbicidal effect on G: green foxtail,green foxtail [7],5 (Herbicidal rate of 90% or more (almost completely withered))
same,herbicidal effect on K: Italian ryegrass,Italian ryegrass [8],5 (Herbicidal rate of 90% or more (almost completely withered))
same,"herbicidal effect rating, M: velvetleaf",velvetleaf [9],3 (Herbicidal rate of 40% or more and less than 70%)
same,herbicidal effect on M: velvetleaf,velvetleaf [10],5 (Herbicidal rate of 90% or more (almost completely withered))
CSc1ccc(-c2sc3ccc(F)cc3c2-c2c(O)c(C)nn(C)c2=O)cc1 [2-076],"herbicidal effect rating, A: late watergrass",late watergrass,2 (Herbicidal rate of 20% or more and less than 40%)
same,"herbicidal effect rating, J: blackgrass",blackgrass,0 (Herbicidal rate of 5% or less (almost no effect))
same,"herbicidal effect rating, N: redroot pigweed",redroot pigweed,5 (Herbicidal rate of 90% or more (almost completely withered))
same,"herbicidal effect rating, I: wild oat",wild oat [1],0 (Herbicidal rate of 5% or less (almost no effect))
same,Herbicidal effect on C: oval-leafed pondweed (grade 0-5),oval-leafed pondweed [2],0 (Herbicidal rate of 5% or less (almost no effect))
same,"herbicidal effect rating, K: Italian ryegrass",Italian ryegrass [3],4 (Herbicidal rate of 70% or more and less than 90%)
same,herbicidal effect on R: persian speedwell,persian speedwell,5 (Herbicidal rate of 90% or more (almost completely withered))
same,herbicidal effect on I: wild oat,wild oat [4],5 (Herbicidal rate of 90% or more (almost completely withered))
same,"herbicidal effect rating, P: chickweed",chickweed,4 (Herbicidal rate of 70% or more and less than 90%)
same,"herbicidal effect rating, C: oval-leafed pondweed",oval-leafed pondweed [5],0 (Herbicidal rate of 5% or less (almost no effect))
same,herbicidal effect on F: southern crabgrass,southern crabgrass,5 (Herbicidal rate of 90% or more (almost completely withered))
same,"herbicidal effect rating, G: green foxtail",green foxtail [6],4 (Herbicidal rate of 70% or more and less than 90%)
same,"herbicidal effect on E (rice flat sedge), rating 0-5",rice flat sedge,5 (Herbicidal rate of 90% or more (almost completely withered))
same,herbicidal effect on G: green foxtail,green foxtail [7],5 (Herbicidal rate of 90% or more (almost completely withered))
same,herbicidal effect on K: Italian ryegrass,Italian ryegrass [8],4 (Herbicidal rate of 70% or more and less than 90%)
same,"herbicidal effect rating, M: velvetleaf",velvetleaf [9],2 (Herbicidal rate of 20% or more and less than 40%)
same,herbicidal effect on M: velvetleaf,velvetleaf [10],5 (Herbicidal rate of 90% or more (almost completely withered))
CCCC(=O)Oc1c(C)nn(C)c(=O)c1-c1c(-c2ccc(SC)cc2)sc2ccc(F)cc12 [2-077],"herbicidal effect rating, A: late watergrass",late watergrass,4 (Herbicidal rate of 70% or more and less than 90%)
same,"herbicidal effect rating, J: blackgrass",blackgrass,2 (Herbicidal rate of 20% or more and less than 40%)
same,"herbicidal effect rating, N: redroot pigweed",redroot pigweed,5 (Herbicidal rate of 90% or more (almost completely withered))
same,"herbicidal effect rating, I: wild oat",wild oat [1],2 (Herbicidal rate of 20% or more and less than 40%)
same,Herbicidal effect on C: oval-leafed pondweed (grade 0-5),oval-leafed pondweed [2],5 (Herbicidal rate of 90% or more (almost completely withered))
same,"herbicidal effect rating, K: Italian ryegrass",Italian ryegrass [3],3 (Herbicidal rate of 40% or more and less than 70%)
same,herbicidal effect on R: persian speedwell,persian speedwell,5 (Herbicidal rate of 90% or more (almost completely withered))
same,herbicidal effect on I: wild oat,wild oat [4],5 (Herbicidal rate of 90% or more (almost completely withered))
same,"herbicidal effect rating, P: chickweed",chickweed,5 (Herbicidal rate of 90% or more (almost completely withered))
same,"herbicidal effect rating, C: oval-leafed pondweed",oval-leafed pondweed [5],3 (Herbicidal rate of 40% or more and less than 70%)
same,herbicidal effect on F: southern crabgrass,southern crabgrass,5 (Herbicidal rate of 90% or more (almost completely withered))
same,"herbicidal effect rating, G: green foxtail",green foxtail [6],4 (Herbicidal rate of 70% or more and less than 90%)
same,"herbicidal effect on E (rice flat sedge), rating 0-5",rice flat sedge,5 (Herbicidal rate of 90% or more (almost completely withered))
same,herbicidal effect on G: green foxtail,green foxtail [7],5 (Herbicidal rate of 90% or more (almost completely withered))
same,herbicidal effect on K: Italian ryegrass,Italian ryegrass [8],5 (Herbicidal rate of 90% or more (almost completely withered))
same,"herbicidal effect rating, M: velvetleaf",velvetleaf [9],3 (Herbicidal rate of 40% or more and less than 70%)
same,herbicidal effect on M: velvetleaf,velvetleaf [10],5 (Herbicidal rate of 90% or more (almost completely withered))
